According to ChEMBL document CHEMBL1144193, “Design, synthesis, and evaluation of novel aryl-tetrahydropyridine PPARalpha/gamma dual agonists” (Bioorg Med Chem Lett, 2008):
In brackets after ≈: the same amount, converted by molar mass.

Tests used:
[1] = target: T1, Peroxisome proliferator-activated receptor gamma (Homo sapiens, UniProt P37231)
T1 sequence (P37231 whole entry): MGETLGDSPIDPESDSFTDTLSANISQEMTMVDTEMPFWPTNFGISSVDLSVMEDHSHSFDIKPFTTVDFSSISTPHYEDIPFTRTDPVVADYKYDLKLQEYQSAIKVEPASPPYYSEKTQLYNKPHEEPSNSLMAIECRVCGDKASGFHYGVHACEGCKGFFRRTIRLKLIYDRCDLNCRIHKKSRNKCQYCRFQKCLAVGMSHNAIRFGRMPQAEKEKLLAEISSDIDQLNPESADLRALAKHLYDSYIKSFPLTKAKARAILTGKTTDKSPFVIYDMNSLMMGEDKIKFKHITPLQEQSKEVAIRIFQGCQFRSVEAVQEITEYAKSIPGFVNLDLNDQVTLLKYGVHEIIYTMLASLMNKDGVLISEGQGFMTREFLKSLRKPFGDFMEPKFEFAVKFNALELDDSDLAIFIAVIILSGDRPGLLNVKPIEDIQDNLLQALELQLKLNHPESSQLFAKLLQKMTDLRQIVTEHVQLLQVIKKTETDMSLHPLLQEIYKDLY
Description: Agonist activity at human PPARgamma expressed in african green monkey CV-1 co-transfected with GAL4 by dual-glo luciferase reporter gene assay

[2] = target: T2, Peroxisome proliferator-activated receptor alpha (Homo sapiens, UniProt Q07869); experiment: Agonist activity at human PPARalpha expressed in african green monkey CV-1 by co-transfected with GAL4 by dual-glo luciferase reporter gene assay; assay type: functional
T2 sequence (Q07869 whole entry): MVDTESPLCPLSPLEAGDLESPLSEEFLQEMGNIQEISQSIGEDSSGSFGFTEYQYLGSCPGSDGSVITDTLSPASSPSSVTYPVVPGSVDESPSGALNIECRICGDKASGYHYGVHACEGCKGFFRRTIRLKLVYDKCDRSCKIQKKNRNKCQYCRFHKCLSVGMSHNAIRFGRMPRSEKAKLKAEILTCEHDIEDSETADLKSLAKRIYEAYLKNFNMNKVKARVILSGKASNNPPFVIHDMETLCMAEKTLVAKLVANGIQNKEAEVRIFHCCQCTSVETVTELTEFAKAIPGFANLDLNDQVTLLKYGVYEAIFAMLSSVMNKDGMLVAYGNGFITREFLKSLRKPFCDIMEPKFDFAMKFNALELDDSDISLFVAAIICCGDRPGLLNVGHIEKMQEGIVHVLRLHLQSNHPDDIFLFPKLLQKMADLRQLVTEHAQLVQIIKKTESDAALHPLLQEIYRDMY

[3] = Oral bioavailability in Sprague-Dawley rat at 3 mg/kg; assay type: ADME, organism-based; settings: in vivo
Mus musculus [4] = experiment: Antihyperglycemic activity in db/db mouse assessed as reduction in plasma glucose level at 0.3 mg/kg, po once daily after 28 days relative to non-fasting control; assay type: functional; parameters: scale not given: the % may be the effect or the level left
Mus musculus [5] = experiment: Antihyperglycemic activity in db/db mouse assessed as reduction in plasma glucose level at 0.03 mg/kg, po once daily after 28 days relative to non-fasting control; assay type: functional; parameters: scale not given: the % may be the effect or the level left
Mus musculus [6] = experiment: Antihyperglycemic activity in db/db mouse assessed as increase in body weight at 0.3 mg/kg, po once daily after 28 days; assay type: functional
[7] = Solubility at pH 6.8; assay type: physicochemical; settings: buffer
[8] = Volume of distribution at steady state in Sprague-Dawley rat at 3 mg/kg, iv; settings: in vivo
Mus musculus [9] = experiment: Antihyperglycemic activity in po dosed db/db mouse assessed as reduction in glucose level after 28 days; assay type: functional; settings: 672 h
Mus musculus [10] = experiment: Antihyperglycemic activity in db/db mouse assessed as increase in body weight at 0.03 mg/kg, po once daily after 28 days; assay type: functional
[11] = Cmax in Sprague-Dawley rat at 3 mg/kg, po; assay type: ADME, organism-based; parameters: dose 3 mg/kg, route oral; settings: in vivo
Mus musculus [12] = experiment: Antihyperglycemic activity in db/db mouse assessed as increase in body weight at 1 mg/kg, po once daily after 28 days; assay type: functional
[13] = AUC (0 to 24 hrs) in Sprague-Dawley rat at 3 mg/kg, iv; assay type: ADME, organism-based; parameters: time < 24 hr, dose 3 mg/kg, route intravenous; settings: plasma
Mus musculus [14] = experiment: Antihyperglycemic activity in db/db mouse assessed as increase in body weight at 0.1 mg/kg, po once daily after 28 days; assay type: functional
Mus musculus [15] = experiment: Antihyperglycemic activity in db/db mouse assessed as reduction in plasma glucose level at 1 mg/kg, po once daily after 28 days relative to non-fasting control; assay type: functional; parameters: scale not given: the % may be the effect or the level left
[16] = Tmax in Sprague-Dawley rat at 3 mg/kg, po; assay type: ADME, organism-based; parameters: dose 3 mg/kg, route oral; settings: in vivo
[17] = AUC (0 to 24 hrs) in Sprague-Dawley rat at 3 mg/kg, po; assay type: ADME, organism-based; parameters: time < 24 hr, dose 3 mg/kg, route oral; settings: plasma
Mus musculus [18] = experiment: Antihyperglycemic activity in db/db mouse assessed as reduction in plasma glucose level at 0.1 mg/kg, po once daily after 28 days relative to non-fasting control; assay type: functional; parameters: scale not given: the % may be the effect or the level left
[19] = Half life in Sprague-Dawley rat at 3 mg/kg, iv; assay type: ADME, organism-based; parameters: dose 3 mg/kg, route intravenous; settings: in vivo
[20] = Clearance in Sprague-Dawley rat at 3 mg/kg, iv; assay type: ADME, organism-based; parameters: dose 3 mg/kg, route intravenous; settings: in vivo
Mus musculus [21] = experiment: Antihyperglycemic activity in db/db mouse assessed as reduction in plasma glucose level at 3 mg/kg, po once daily after 28 days relative to non-fasting control; parameters: scale not given: the % may be the effect or the level left
Mus musculus [22] = experiment: Antihyperglycemic activity in db/db mouse assessed as increase in body weight at 3 mg/kg, po once daily after 28 days

| Structure (SMILES) | EC50 [1] [nM] | EC50 [2] [nM] | further results |
| --- | --- | --- | --- |
| CCOC(Cc1ccc(OCCN2CC=C(c3ccccc3)CC2)cc1)C(=O)O (stereo not drawn) | 2150 | 5980 |  |
| CC(Cc1ccc(OCCN2CC=C(c3ccc(Cl)cc3)CC2)cc1)(Oc1ccccc1)C(=O)O (stereo not drawn) | 4880 | 25500 |  |
| CCOC(Cc1ccc(OCCN2CC=C(c3cc(Cl)cc(Cl)c3)CC2)cc1)C(=O)O (stereo not drawn) | 1420 | 2990 |  |
| CCO[C@@H](Cc1ccc(OCCN2CC=C(c3ccc(Cl)cc3)CC2)cc1)C(=O)O | 639 | 1730 | bioavailability [3]: > 100%; Activity (Mus musculus [4]): 63%; Activity (Mus musculus [5]): 14%; Activity (Mus musculus [6]): 12.6 g; solubility [7]: 3260 µg/mL (≈ 7590 µM); Vd [8]: 0.44 L/kg; ED30 (Mus musculus [9]): 0.067 mg/kg; Activity (Mus musculus [10]): 11.2 g; Cmax [11]: 15.9 µM; Activity (Mus musculus [12]): 13.7 g; AUC(0-t) at 24 h [13]: 272 µM·h; Activity (Mus musculus [14]): 12.4 g; Activity (Mus musculus [15]): 77%; Tmax [16]: 30 min; AUC(0-t) at 24 h [17]: 270 µM·h; Activity (Mus musculus [18]): 37%; half-life [19]: 1380 min; clearance [20]: 0.23 mL/min/kg |
| CCOC(Cc1ccc(OCCN2CC=C(c3ccc(F)cc3)CC2)cc1)C(=O)O (stereo not drawn) | 3720 | 2230 |  |
| CCO[C@@H](Cc1ccc(OCCc2ccc(OS(C)(=O)=O)cc2)cc1)C(=O)O [TESAGLITAZAR] | 704 | 3120 |  |
| CCOC(Cc1ccc(OCCN2CC=C(c3cccc(Cl)c3)CC2)cc1)C(=O)O (stereo not drawn) | 1670 | 3240 |  |
| COc1ccc(OC(=O)N(CC(=O)O)Cc2ccc(OCCc3nc(-c4ccccc4)oc3C)cc2)cc1 [MURAGLITAZAR] |  | 4110 | bioavailability [3]: 96.2%; Activity (Mus musculus [4]): 11%; Activity (Mus musculus [6]): 12.7 g; solubility [7]: 41 µg/mL (≈ 79.4 µM); Vd [8]: 0.57 L/kg; ED30 (Mus musculus [9]): 0.411 mg/kg; Cmax [11]: 25.8 µM; Activity (Mus musculus [12]): 14.5 g; AUC(0-t) at 24 h [13]: 101 µM·h; Activity (Mus musculus [14]): 10.5 g; Activity (Mus musculus [15]): 54%; Tmax [16]: 34.8 min; AUC(0-t) at 24 h [17]: 98.8 µM·h; Activity (Mus musculus [18]): 4%; Activity (Mus musculus [21]): 78%; half-life [19]: 840 min; Activity (Mus musculus [22]): 16.1 g; clearance [20]: 0.73 mL/min/kg |
| CCOC(Cc1ccc(OCCCN2CC=C(c3ccc(C(F)(F)F)cc3)CC2)cc1)C(=O)O (stereo not drawn) | 504 | 9790 |  |
| CCOC(Cc1ccc(OCCCN2CC=C(c3ccc(Cl)c(Cl)c3)CC2)cc1)C(=O)O (stereo not drawn) | 728 | 1700 |  |
| CCOC(Cc1ccc(OCCN2CC=C(c3cccc(C(F)(F)F)c3)CC2)cc1)C(=O)O (stereo not drawn) | 2230 | 3120 |  |
| CCOC(Cc1ccc(OCCN2CC=C(c3cccs3)CC2)cc1)C(=O)O (stereo not drawn) | 3300 | 8580 |  |
| CCOC(Cc1ccc(OCCN2CC=C(c3cccc(OC)c3)CC2)cc1)C(=O)O (stereo not drawn) | 2380 | 17300 |  |
| CCOC(Cc1ccc(OCCN2CC=C(c3ccc(CC)cc3)CC2)cc1)C(=O)O (stereo not drawn) | 689 | 7580 |  |
| CCOC(Cc1ccc(OCCN2CC=C(c3ncccn3)CC2)cc1)C(=O)O (stereo not drawn) | 4600 | 7670 |  |
| CN(CCOc1ccc(CC2SC(=O)NC2=O)cc1)c1ccccn1 (stereo not drawn) [ROSIGLITAZONE] |  |  | bioavailability [3]: > 100%; Activity (Mus musculus [4]): 37%; Activity (Mus musculus [6]): 11.1 g; solubility [7]: 14 µg/mL (≈ 39.2 µM); ED30 (Mus musculus [9]): 0.21 mg/kg; Cmax [11]: 44.3 µM; Activity (Mus musculus [12]): 12.5 g; AUC(0-t) at 24 h [13]: 53.7 µM·h; Activity (Mus musculus [14]): 10.5 g; Activity (Mus musculus [15]): 56%; Tmax [16]: 15 min; AUC(0-t) at 24 h [17]: 94.2 µM·h; Activity (Mus musculus [18]): 17%; Activity (Mus musculus [21]): 68%; half-life [19]: 63 min; Activity (Mus musculus [22]): 13.9 g; clearance [20]: 2.99 mL/min/kg |
| CCOC(Cc1ccc(OCCN2CC=C(c3ccccc3Cl)CC2)cc1)C(=O)O (stereo not drawn) | 5830 | 7720 |  |

| Structure (SMILES) | EC50 [1] [nM] | EC50 [2] [nM] | further results |
| --- | --- | --- | --- |
| CC(C)(Oc1cccc(OCCN2CC=C(c3ccc(Cl)cc3)CC2)c1)C(=O)O | 18800 | 331 |  |
| CCOC(Cc1ccc(OCCN2CC=C(c3ccc(Cl)cc3)CC2)cc1)C(=O)O (stereo not drawn) | 2060 | 7070 |  |
| CCOC(Cc1ccc(OCCN2CC=C(c3ccccc3OC)CC2)cc1)C(=O)O (stereo not drawn) | 3930 | 18100 |  |
| CCOC(Cc1ccc(OCCCN2CC=C(c3ccc(Cl)cc3)CC2)cc1)C(=O)O (stereo not drawn) | 2320 | 9800 |  |
| CCOC(Cc1ccc(OCCN2CC=C(c3ccc(OC)cc3)CC2)cc1)C(=O)O (stereo not drawn) | 396 | 11300 |  |
| CCCc1ccc(C2=CCN(CCOc3ccc(CC(OCC)C(=O)O)cc3)CC2)cc1 (stereo not drawn) | 174 | 2080 |  |
| CCOC(Cc1ccc(OCCN2CC=C(c3ccccn3)CC2)cc1)C(=O)O (stereo not drawn) | 2300 | 10200 |  |
| CCC(Cc1ccc(OCCN2CC=C(c3ccc(Cl)cc3)CC2)cc1)C(=O)O (stereo not drawn) | 5290 | 3860 |  |
| CCOC(Cc1ccc(OCCN2CC=C(c3ccc(Cl)cc3Cl)CC2)cc1)C(=O)O (stereo not drawn) | 706 | 1120 |  |
| CC(C)(Oc1ccc(OCCN2CC=C(c3ccc(Cl)cc3)CC2)cc1)C(=O)O | 22800 | 868 |  |
| CCOC(Cc1ccc(OCCN2CC=C(c3ccc(Cl)c(Cl)c3)CC2)cc1)C(=O)O (stereo not drawn) | 670 | 1150 |  |
| CCOC(Cc1ccc(OCCN2CC=C(c3cccc(Cl)c3Cl)CC2)cc1)C(=O)O (stereo not drawn) | 661 | 64 |  |
| CCOC(Cc1ccc(OCCN2CC=C(c3ccc(C(F)(F)F)cc3)CC2)cc1)C(=O)O (stereo not drawn) | 1890 | 3400 |  |
| CCOC(Cc1ccc(OCCN2CC=C(c3ccccc3C(F)(F)F)CC2)cc1)C(=O)O (stereo not drawn) | 7560 | 542 |  |
| CCO[C@@H](Cc1ccc(OCCN2CC=C(c3ccc(Cl)c(Cl)c3)CC2)cc1)C(=O)O | 862 | 615 |  |
| CCOC(Cc1ccc(OCCN2CC=C(c3cc(Cl)ccc3Cl)CC2)cc1)C(=O)O (stereo not drawn) | 1440 | 1120 |  |
| CCOC(Cc1ccc(OCCN2CC=C(c3cnccn3)CC2)cc1)C(=O)O (stereo not drawn) | 12600 | 3670 |  |
